PubChem BioAssay (NCI)
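Method: 48-hour compound exposure of cells in 96-well plates, five concentrations, linear interpolation of endpoints. GI50: concentration for 50% inhibition of growth. The concentration for full growth arrest is given as TGI.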

Experiments:
Experiment in all cases: NCI anticancer screen, dose series, 48 h
UACC-257 melanoma = tested on: UACC-257 melanoma
ACHN renal = tested on: ACHN renal
KM12 colon = tested on: KM12 colon
HOP-92 NSCLC = tested on: HOP-92 NSCLC
A549 NSCLC = tested on: A549 NSCLC
SK-OV-3 ovarian = tested on: SK-OV-3 ovarian
M14 melanoma = tested on: M14 melanoma
RPMI-8226 leukemia = tested on: RPMI-8226 leukemia
HCT-15 colon = tested on: HCT-15 colon
CAKI-1 renal = tested on: CAKI-1 renal

SMILES | GI50 (UACC-257 melanoma) | TGI (UACC-257 melanoma) | GI50 (ACHN renal) | TGI (ACHN renal) | GI50 (KM12 colon) | TGI (KM12 colon) | GI50 (HOP-92 NSCLC) | TGI (HOP-92 NSCLC) | GI50 (A549 NSCLC) | TGI (A549 NSCLC) | GI50 (SK-OV-3 ovarian) | TGI (SK-OV-3 ovarian) | GI50 (M14 melanoma) | TGI (M14 melanoma) | GI50 (RPMI-8226 leukemia) | TGI (RPMI-8226 leukemia) | GI50 (HCT-15 colon) | TGI (HCT-15 colon) | GI50 (CAKI-1 renal) | TGI (CAKI-1 renal)
COC(=O)C1=C(C(=O)OC)C23C=C(C)C1C2=C(C)C1(CC1)[C@@](C)(O)C3=O (stereo not given in full) | 0.864 µM | 3.82 µM | 0.416 µM | > 100 µM | 0.868 µM | 11 µM | 310 nM | 1.53 µM | 255 nM | 0.858 µM | 0.25 µM | 0.7 µM | 0.316 µM | 1.46 µM | 7.36 µM | 52.6 µM | 403 nM | 12.8 µM |  | 
CCOC(=O)c1sc(Nc2ccc(Cl)cc2)nc1C | 2.11 µM | 4.67 µM | 1.68 µM | 3.88 µM |  |  | 346 nM | 1.81 µM | 2170 nM | 5.45 µM | 2.44 µM | 6.8 µM | 1.56 µM | 3.32 µM | 1.83 µM | 5.65 µM | 1620 nM | 3.92 µM | 2.09 µM | 6.51 µM
CCCc1nc2c(C)cc(-c3nc4ccccc4n3C)cc2n1Cc1ccc(-c2ccccc2C(=O)O)cc1 | 68.4 µM | > 100 µM | 25.6 µM | > 100 µM |  |  | 25700 nM | > 100 µM | 22800 nM | > 100 µM | > 100 µM | > 100 µM | 34.5 µM | > 100 µM | 17.3 µM | 95.9 µM | 20300 nM | > 100 µM | 22.6 µM | 61.3 µM
Nc1c(-c2ccc(Cl)cc2Cl)[n+]([O-])c2ccccc2[n+]1[O-] |  | > 100 µM |  | > 100 µM |  | > 100 µM |  |  |  | > 100 µM |  | > 100 µM |  | > 100 µM |  | > 100 µM |  | > 100 µM |  | > 100 µM
O=C(Nc1nc2ncn(CC(COc3ccccc3)OC(=O)c3ccccc3)c2c(=O)[nH]1)c1ccccc1 (stereo not given) |  | > 100 µM |  | > 100 µM |  | > 100 µM |  |  |  | > 100 µM |  | > 100 µM |  | > 100 µM |  | > 100 µM |  | > 100 µM |  | > 100 µM
COc1ccc(/C=C2\CCC(C)(CN(C)C)C2=O)cc1 (stereo not given) |  | > 100 µM |  | > 100 µM |  | > 100 µM |  | > 100 µM |  | > 100 µM |  |  |  | > 100 µM |  | > 100 µM |  | > 100 µM |  | > 100 µM
Cc1ccc(C)c(NC(=O)CC/C(=N\NC(=O)C(N)=O)C(C)C(=O)c2ccc(O)cc2)c1 (stereo not given) |  | > 100 µM |  | > 100 µM |  | > 100 µM |  | > 100 µM |  | > 100 µM |  | > 100 µM |  | > 100 µM |  |  |  | > 100 µM |  | > 100 µM
COc1ccc(-c2nc(-c3nc4ccc(OC)cc4[nH]3)cc3c2[nH]c2ccccc23)cc1 | 4.34 µM | > 100 µM | 2.33 µM | > 100 µM | 2.57 µM | > 100 µM |  |  | 1920 nM | > 100 µM | > 100 µM | > 100 µM | 3.34 µM | > 100 µM | 0.363 µM | 2.86 µM | 2880 nM | > 100 µM | 6.07 µM | > 100 µM
Cc1[nH]c(=O)[nH]c(=O)c1CO | > 100 µM | > 100 µM | > 100 µM | > 100 µM | > 100 µM | > 100 µM | > 100000 nM | > 100 µM | > 100000 nM | > 100 µM | > 100 µM | > 100 µM | > 100 µM | > 100 µM |  |  | > 100000 nM | > 100 µM | > 100 µM | > 100 µM
COc1cc(-c2cc(-c3nc4ccc(Cl)cc4[nH]3)[nH]n2)cc(OC)c1OC | 2.6 µM | 7.55 µM | 2.96 µM | 12.9 µM | 3.45 µM | 10.6 µM |  |  | 2960 nM | 13.1 µM | 4.47 µM | 14.3 µM | 2.92 µM | 9.96 µM | 1.65 µM | 4.21 µM | 2900 nM | 13.2 µM | 2.8 µM | 11.1 µM
O=c1c2ccccc2c2nc3ccccc3nc2n1C1CCCCC1 |  | > 100 µM |  | > 100 µM |  | > 100 µM |  |  |  | > 100 µM |  | > 100 µM |  |  |  | > 100 µM |  | > 100 µM |  | > 100 µM
NCCC(O)(P(=O)(O)O)P(=O)(O)O | > 100 µM | > 100 µM | 36 µM | > 100 µM | > 100 µM | > 100 µM | > 100000 nM | > 100 µM | > 100000 nM | > 100 µM | > 100 µM | > 100 µM | > 100 µM | > 100 µM | > 100 µM | > 100 µM | > 100000 nM | > 100 µM |  | 
CN(C)CC1(C)CC/C(=C\c2ccccc2)C1=O (stereo not given) |  | > 100 µM |  | > 100 µM |  | > 100 µM |  | > 100 µM |  | > 100 µM |  |  |  | > 100 µM |  | 63.2 µM |  | > 100 µM |  | > 100 µM
Nc1ccc(/C=N/Nc2ccnc3c(N)cccc23)c2cccnc12 |  |  |  |  | 1.7 µM | 3.49 µM | 1580 nM | 3.14 µM | 1680 nM | 3.24 µM | 1.82 µM | 3.3 µM | 1.87 µM | 3.49 µM |  |  | 1340 nM | 2.9 µM |  | 
N#CCCN(c1ccc(-c2nnc(NC(=O)CNNC(=O)CC(=O)Nc3ccccc3)s2)cc1)S(=O)(=O)c1ccccc1 |  | > 100 µM |  | > 100 µM |  | > 100 µM |  | > 100 µM |  | > 100 µM |  | > 100 µM |  |  |  | > 100 µM |  | > 100 µM |  | > 100 µM
COc1ccc(-c2ccc(C3CC(c4ccc(Cl)cc4)=NN3)o2)c([N+](=O)[O-])c1 (stereo not given) | > 100 µM | > 100 µM |  |  |  |  | > 100000 nM | > 100 µM | > 100000 nM | > 100 µM | > 100 µM | > 100 µM | > 100 µM | > 100 µM | > 100 µM | > 100 µM | > 100000 nM | > 100 µM |  | 
Cc1cc(Cl)ccc1N=C1NC(=O)C(CC(=O)Nc2ccc(Cl)cc2Cl)S1 (stereo not given) |  | > 100 µM |  | > 100 µM |  | > 100 µM |  |  |  | > 100 µM |  | > 100 µM |  | > 100 µM |  | > 100 µM |  | > 100 µM |  | > 100 µM
Cn1cc(C2=C(c3cn(CCN)c4ccccc34)C(=O)NC2=O)c2ccccc21 | 6.17 µM | 15.2 µM | 5.47 µM | > 25 µM | 6.69 µM | > 20.6 µM |  |  | 6750 nM | > 25 µM | 6.17 µM | 24.4 µM | 6.15 µM | 19.5 µM | 6.29 µM | 15.5 µM | 6790 nM | > 25 µM | 4.18 µM | 24.5 µM
C=C(C)[C@@H]1CC[C@]2(C)[C@H](CC[C@@H]3[C@H]4[C@H]5OC[C@@]4(CCC5(C)C)CC[C@]32C)[C@@]1(C)CCCN | 1.88 µM | 3.73 µM | 1.84 µM | 3.23 µM | 1.78 µM | 3.33 µM | 1370 nM | 2.79 µM | 1690 nM | 3.37 µM |  |  | 1.79 µM | 3.58 µM | 2.05 µM | 5.09 µM | 1590 nM | 2.99 µM | 1.62 µM | 3 µM
CCC(C)C(NC(=O)C1CCCN1C(=O)C(NC(=O)C(C)N)C(C)C)C(N)=O (stereo not given) | > 100 µM | > 100 µM | > 100 µM | > 100 µM | > 100 µM | > 100 µM | > 100000 nM | > 100 µM | > 100000 nM | > 100 µM | > 100 µM | > 100 µM | > 100 µM | > 100 µM |  |  | > 100000 nM | > 100 µM | > 100 µM | > 100 µM
COc1ccc(C2=NN(C(C)=O)C(c3cn(-c4ccccc4)nc3-c3ccc(Cl)cc3)C2)cc1 (stereo not given) | > 100 µM | > 100 µM | > 100 µM | > 100 µM | > 100 µM | > 100 µM | 2400 nM | > 100 µM |  |  | 4.64 µM | > 100 µM |  |  | > 100 µM | > 100 µM |  | > 100 µM | > 100 µM | > 100 µM
O=C(NO)C12C3C4C1C1C2C3C41C(=O)NO (stereo not given) |  |  |  | > 100 µM |  | > 100 µM |  |  |  | > 100 µM |  | > 100 µM |  | > 100 µM |  | > 100 µM |  | > 100 µM |  | > 100 µM
OCC12C3C4C1C1C2C3C41CO (stereo not given) |  | > 100 µM |  | > 100 µM |  |  |  | > 100 µM |  | > 100 µM |  | > 100 µM |  | > 100 µM |  | > 100 µM |  | > 100 µM |  | > 100 µM
NCCNC(=S)S |  | > 100 µM |  | > 100 µM |  | > 100 µM |  |  |  | > 100 µM |  | > 100 µM |  | > 100 µM |  | 58.8 µM |  | > 100 µM |  | > 100 µM
COc1cc(-n2cc(-c3ccc(Cl)cc3)[nH]c2=O)cc(OC)c1OC | 46.8 µM | > 100 µM | 21.6 µM | 46 µM | 41.3 µM | > 100 µM |  |  | 34600 nM | > 100 µM | 35.8 µM | 93 µM | 94.1 µM | > 100 µM | 12.6 µM | > 100 µM | > 100000 nM | > 100 µM | 16.2 µM | 35.6 µM
COC(=O)C1=C(CO)C2C=CC1C2 (stereo not given) |  | > 100 µM |  | > 100 µM |  | > 100 µM |  |  |  | > 100 µM |  | > 100 µM |  | > 100 µM |  | > 100 µM |  | > 100 µM |  | > 100 µM
